Measurements from patent US5223484A, “Peptide which regulates weight gain in mammals” (Georgetown University, priority 1990, dated 1993).

What was measured:
[1] = Body weight of rabbits injected with peptide/carrier conjugate; format: in vivo; details: female rabbits, peptide coupled to keyhole limpet hemocyanin, 50 μg of peptide subcutaneously, repeated at two weeks then approximately monthly; P1 and P3 pooled (five rabbits)
Experimental: These peptides were then coupled chemically to keyhole limpet hemocyanin, a carrier protein, to improve the immunogenicity in rabbits.
Each peptide/carrier conjugate (50 μg of peptide, approximately 30 nanomoles) was injected subcutaneously into three female rabbits (three groups of three rabbits, approximately 2 months old). Two weeks later the rabbits were injected again with the same amounts of peptide/carrier conjugate. Thereafter, each rabbit was injected with the conjugate at approximately monthly intervals and blood samples were drawn. After five months, the rabbits were sacrificed.
Before the first injection, the rabbits were weighed for calculation of anesthetic dose (used to sedate the rabbits during injection). Before the rabbits were sacrificed, they were weighed again as the rabbits which received P2 were quite obese compared to all other rabbits. The average weight of the five injected with peptides P1 and P3 was 4.4 kg. This is normal for adult female rabbits of this type at this age, i.e. the average weight expected at 6 months is 4.5 kg. However, the weights of the rabbits injected with peptide P2 averaged 5.2 kg, approximately 20% higher.

[2] = Weight gain of mice injected with free peptide; format: in vivo, mice (BALB/c strain); details: BALB/c mice, free peptide 2.5 μg subcutaneously once per week, 85 days, five mice per group
Experimental: In order to obtain statistically significant data on the effects of peptide P2 on weight gain, another series of experiments using mice were performed. Three groups of five mice (BALB/c strain) were used. The first group received injections of peptide P2, a second group received injections of P3 (as control), and a third group received injections of saline (as control). Free peptides were used to avoid the possibility that the effect observed in Example 1 may have been due to the nature of the chemical coupling to the carrier protein. Each mouse (weighing approximately 15 grams) received an injection of 2.5 μg (1.5 nanomoles) of peptide or saline injected subcutaneously. The mice were weighed three times per week and injected once per week with another 2.5 μg of peptide or saline. After 85 days the mice were sacrificed.

Substance	average weight of the rabbits at the end of five months [1] [kg]	effect on weight gain [2]
P3: amino-terminal cytochrome b 561 sequence Ser(21) - Tyr(37), cysteine added at amino-terminus, two lysine residues at carboxy-terminus (CSMEGPASPARAPGALPYKK)	4.4	not different than the P3 control group
KRPLQAEEQALSMDF [P1]	4.4	–
